Measured values published in patent US8119681B2, “2-[1-phenyl-5-hydroxy or methoxy-4alpha-methyl-hexahydrocyclopenta [ƒ]indazole-5-YL]ethyl phenyl derivatives as glucocorticoid receptor ligands” (Merck Sharp & Dohme Corp., priority 2006, dated 2012).

Tests used:
human GR [1] = biological target: T1, human GR (Homo sapiens, UniProt P04150); test: Trans-Activation Modulation of Glucocorticoid Receptor (GRAMMER), MMTV-LUC reporter gene; assay type: cell-based; parameters: endogenous in cells; conditions: for Emax: A549; for EC50: A549 cells, IP = inflection point
T1 sequence (P04150 1-777): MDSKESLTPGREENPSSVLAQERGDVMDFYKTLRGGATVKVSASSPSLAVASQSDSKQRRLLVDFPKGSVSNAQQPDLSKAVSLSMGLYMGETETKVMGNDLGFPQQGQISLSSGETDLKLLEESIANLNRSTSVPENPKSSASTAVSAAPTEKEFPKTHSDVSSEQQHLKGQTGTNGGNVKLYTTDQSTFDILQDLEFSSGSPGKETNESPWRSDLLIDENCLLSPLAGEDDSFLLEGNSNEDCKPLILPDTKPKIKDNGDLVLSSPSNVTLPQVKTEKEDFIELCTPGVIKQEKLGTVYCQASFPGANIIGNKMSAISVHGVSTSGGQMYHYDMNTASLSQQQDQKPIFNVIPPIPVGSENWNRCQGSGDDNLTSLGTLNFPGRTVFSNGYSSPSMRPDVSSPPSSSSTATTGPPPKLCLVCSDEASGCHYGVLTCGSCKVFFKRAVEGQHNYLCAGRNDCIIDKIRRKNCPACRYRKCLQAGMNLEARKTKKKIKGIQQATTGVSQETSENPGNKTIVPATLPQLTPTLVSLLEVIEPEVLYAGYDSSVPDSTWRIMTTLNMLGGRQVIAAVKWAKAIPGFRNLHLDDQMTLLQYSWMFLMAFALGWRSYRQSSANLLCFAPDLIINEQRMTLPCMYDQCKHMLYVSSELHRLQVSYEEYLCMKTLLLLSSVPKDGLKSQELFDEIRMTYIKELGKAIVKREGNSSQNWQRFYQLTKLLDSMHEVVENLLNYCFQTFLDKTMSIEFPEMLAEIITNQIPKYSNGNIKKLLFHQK

human GR [2] = biological target: T1, human GR; test: Transrepression Assay (GITAR), TNFα-β-lactamase reporter gene in U937 cells; assay type: cell-based; parameters: U937 cells contain an endogenous glucocorticoid receptor (GR); endogenous in cells; host or cells: U937 cells stably transfected with the TNF-α promoter/β-lactamase reporter only; conditions: for EC50: IP = inflection point; for GITAR > GRAMM % SEP: separation of GITAR Emax over GRAMMER Emax; for Emax: U-937
Summary of the method: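 Reporter readout used CCF2-AM loading for 70–90 min at room temperature after overnight (~18 h, 37 °C) PMA (5 ng/ml final) and LPS (100 ng/ml final) stimulation of compound-treated (30–45 min) TNFα-β-lactamase U937 cells expressing native GR. Activity was normalised to 100 nM dexamethasone repression.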

[3] = read-out: Transactivation A549 Cells GRAMMER Emax (%)
[4] = Table 1, read-out: Transactivation A549 Cells GRAMMER IP
[5] = Table 1, U937 cells, read-out: Transrepression U937 Cells GITAR IP
[6] = 100 nM dexamethasone = 100% activity, read-out: maximal activity in the transrepression assay
[7] = Table 1, U937 cells, activity repressed by 100 nM dexamethasone = 100%, read-out: Transrepression U937 Cells GITAR Emax (%)
[8] = read-out: Transactiviation A549 Cells GRAMMER Emax (%)
[9] = Table 2, read-out: Transactiviation A549 Cells GRAMMER IP
[10] = Table 2, U937 cells, read-out: Transactiviation U937 Cells GITAR IP
[11] = Table 2, U937 cells, activity repressed by 100 nM dexamethasone = 100%, read-out: Transactiviation U937 Cells GITAR Emax (%)

SMILES	Emax (human GR [1]; [3]) [%]	EC50 (human GR [1]; [4]) [nM]	EC50 (human GR [2]; [5]) [nM]	GITAR > GRAMM % SEP (human GR [2]; Table 1) [%]	Emax (human GR [2]; [6]) [%]	Emax (human GR [2]; [7]) [%]	Emax (human GR [1]; [8]) [%]	EC50 (human GR [1]; [9]) [nM]	EC50 (human GR [2]; [10]) [nM]	GITAR > GRAMM % SEP (human GR [2]; Table 2) [%]	Emax (human GR [2]; [11]) [%]
CCNC(=O)c1ccccc1CC[C@]1(O)CCC2=Cc3c(cnn3-c3ccc(F)c(F)c3)C[C@@]21C [Example 51, 2-{2-[(4αS,5R)-1-(3,4-difluorophenyl)-5-hydroxy-4α-methyl-1,4,4α,5,6,7-hexahydrocyclopenta[f]indazol-5-yl]ethyl}-N-ethylbenzamide]	30	164	193	42	5 to 100	73					
CC(C)(C)CNC(=O)c1c(F)cccc1CC[C@]1(O)CCC2=Cc3c(cnn3-c3ccc(F)cc3)C[C@@]21C [Example 55, N-(2,2-dimethylpropyl)-2-fluoro-6-{2-[(4αS,5R)-1-(4-fluorophenyl)-5-hydroxy-4α-methyl-1,4,4α,5,6,7-hexahydrocyclopenta[f]indazol-5-yl]ethyl}benzamide]	23	173	187	53	5 to 100	76					
COc1ccccc1CC[C@]1(O)CCC2=Cc3c(cnn3-c3ccc(F)cc3)C[C@@]21C [Example 58 WO 2004/075840 A2, reference compound]							28	397	642	14	42
CC(C)(C)NC(=O)c1c(F)cccc1CC[C@]1(O)CCC2=Cc3c(cnn3-c3ccc(F)cc3)C[C@@]21C [Example 59, N-(tert-butyl)-2-fluoro-6-{2-[(4αS,5R)-1-(4-fluorophenyl)-5-hydroxy-4α-methyl-1,4,4α,5,6,7-hexahydrocyclopenta[f]indazol-5-yl]ethyl}benzamide]	40	108	95	37	5 to 100	77					
CC(C)(C)NC(=O)c1ccccc1CC[C@]1(O)CCC2=Cc3c(cnn3-c3ccc(F)cc3)C[C@@]21C [Example 62, N-(tert-butyl)-2-{2-[(4αS,5R)-1-(4-fluorophenyl)-5-hydroxy-4α-methyl-1,4,4α,5,6,7-hexahydrocyclopenta[f]indazol-5-yl]ethyl}benzamide]	23	212	246	56	5 to 100	79					
C[C@]12Cc3cnn(-c4ccc(F)cc4)c3C=C1CC[C@@]2(O)CCc1ccccc1F [Example 70 WO 2004/075840 A2, reference compound]							144	215	175	−62	83
C[C@]12Cc3cnn(-c4ccc(F)cc4)c3C=C1CC[C@@]2(O)CCc1cccc(F)c1CNS(=O)(=O)CC(F)(F)F [Example 86, 2,2,2-trifluoro-N-(2-fluoro-6-{2-[(4αS,5R)-1-(4-fluorophenyl)-5-hydroxy-4α-methyl-1,4,4α,5,6,7-hexahydrocyclopenta[f]indazol-5-yl]ethyl}benzyl)ethanesulfonamide]	13	211	246	53	5 to 100	66					

The next lines start with the values.

Emax (human GR [1]; [3]) [%]	EC50 (human GR [1]; [4]) [nM]	EC50 (human GR [2]; [5]) [nM]	GITAR > GRAMM % SEP (human GR [2]; Table 1) [%]	Emax (human GR [2]; [6]) [%]	Emax (human GR [2]; [7]) [%]	Emax (human GR [1]; [8]) [%]	EC50 (human GR [1]; [9]) [nM]	EC50 (human GR [2]; [10]) [nM]	GITAR > GRAMM % SEP (human GR [2]; Table 2) [%]	Emax (human GR [2]; [11]) [%]	SMILES
25	26	30	47	5 to 100	72						CCCNC(=O)c1c(F)cccc1CC[C@]1(O)CCC2=Cc3c(cnn3-c3ccc(F)cc3)C[C@@]21C [Example 49, 2-fluoro-6-{2-[(4αS,5R)-1-(4-fluorophenyl)-5-hydroxy-4α-methyl-1,4,4α,5,6,7-hexahydrocyclopenta[f]indazol-5-yl]ethyl}-N-propylbenzamide]
45	21	154	29	5 to 100	74						COC(=O)C(C)(C)NC(=O)c1ccccc1CC[C@]1(O)CCC2=Cc3c(cnn3-c3ccc(F)cc3)C[C@@]21C [Example 52, methyl N-(2-{2-[(4αS,5R)-1-(4-fluorophenyl)-5-hydroxy-4α-methyl-1,4,4α,5,6,7-hexahydrocyclopenta[f]indazol-5-yl]ethyl}benzoyl)-2-methylalaninate]
37	24	30	40	5 to 100	77						C=CCNC(=O)c1c(F)cccc1CC[C@]1(O)CCC2=Cc3c(cnn3-c3ccc(F)cc3)C[C@@]21C [Example 57, N-allyl-2-fluoro-6-{2-[(4αS,5R)-1-(4-fluorophenyl)-5-hydroxy-4α-methyl-1,4,4α,5,6,7-hexahydrocyclopenta[f]indazol-5-yl]ethyl}benzamide]
35	86	83	44	5 to 100	79						CC(C)CNC(=O)c1c(F)cccc1CC[C@]1(O)CCC2=Cc3c(cnn3-c3ccc(F)cc3)C[C@@]21C [Example 61, 2-fluoro-6-{2-[(4αS,5R)-1-(4-fluorophenyl)-5-hydroxy-4α-methyl-1,4,4α,5,6,7-hexahydrocyclopenta[f]indazol-5-yl]ethyl}-N-isobutylbenzamide]
21	70	94	33	5 to 100	54						CC(C)S(=O)(=O)NCc1c(F)cccc1CC[C@]1(O)CCC2=Cc3c(cnn3-c3ccc(F)cc3)C[C@@]21C [Example 83, N-(2-fluoro-6-{2-[(4αS,5R)-1-(4-fluorophenyl)-5-hydroxy-4α-methyl-1,4,4α,5,6,7-hexahydrocyclopenta[f]indazol-5-yl]ethyl}benzyl)propane-2-sulfonamide]
23	50	96	37	5 to 100	60						CCS(=O)(=O)NCc1c(F)cccc1CC[C@]1(O)CCC2=Cc3c(cnn3-c3ccc(F)cc3)C[C@@]21C [Example 84, N-(2-fluoro-6-{2-[(4αS,5R)-1-(4-fluorophenyl)-5-hydroxy-4α-methyl-1,4,4α,5,6,7-hexahydrocyclopenta[f]indazol-5-yl]ethyl}benzyl)ethanesulfonamide]
19	94	182	44	5 to 100	63						C[C@]12Cc3cnn(-c4ccc(F)cc4)c3C=C1CC[C@@]2(O)CCc1cccc(F)c1CNS(=O)(=O)C(Cl)Cl [Example 85, 1,1-dichloro-N-(2-fluoro-6-{2-[(4αS,5R)-1-(4-fluorophenyl)-5-hydroxy-4α-methyl-1,4,4α,5,6,7-hexahydrocyclopenta[f]indazol-5-yl]ethyl}benzyl)methanesulfonamide]
32	53	90	37	5 to 100	69						C[C@]12Cc3cnn(-c4ccc(F)cc4)c3C=C1CC[C@@]2(O)CCc1cccc(F)c1CNS(=O)(=O)C1CC1 [Example 88, N-(2-fluoro-6-{2-[(4αS,5R)-1-(4-fluorophenyl)-5-hydroxy-4α-methyl-1,4,4α,5,6,7-hexahydrocyclopenta[f]indazol-5-yl]ethyl}benzyl)cyclopropanesulfonamide]
